The subject of test [1] is SW1990. Put plainly: Cytotoxicity against human SW1990 cells after 72 hrs by CCK8 assay. Type of test: functional, cell-based. To be noted: SW1990, 72 h.
Test [2] has as its system MCF7. Put plainly: Cytotoxicity against human MCF7 cells after 72 hrs by CCK8 assay. In kind it is functional, cell-based. As to conditions: MCF7, 72 h.
Test [3] concerns HeLa. Description: Cytotoxicity against human HeLa cells after 72 hrs by CCK8 assay. Type of test: functional, cell-based.
Test [4] concerns PANC-1. Description: Cytotoxicity against human PANC1 cells after 72 hrs by CCK8 assay. Type of test: functional, cell-based. As to conditions: PANC-1, 72 h.
Test [5] concerns HCT-116. Description: Cytotoxicity against human HCT116 cells after 72 hrs by CCK8 assay. Type of test: functional, cell-based. To be noted: HCT-116, 72 h.
In test [6] the test system is HEK293. Description: Inhibition of TNFalpha-stimulated NFkappaB (unknown origin) expressed in HEK293 cells pretreated for 2 hrs followed by TNFalpha stimulation and measured after 6 hrs by luciferase reporter gene assay. In kind it is cell-based. As to conditions: Homo sapiens.
Test [7] relates to RAW264.7. Description: Inhibition of LPS-induced nitric oxide production in […] RAW264.7 cells at 2.5 to 20 uM pretreated for 2 hrs followed by LPS-stimulation and measured after 20 hrs by Griess assay. Type of test: functional, cell-based.

Structures are written as SMILES. Calls of active or inactive are those of the source. The rule behind the calls is not given here.

On to `C=C[C@@]1(C)CCC2=C(C(=O)O[C@@H]3CC[C@@]4(C)COC(=O)[C@@H]4[C@]23C)[C@H]1O`, for which the IC50 in test [1], in test [2], in test [3], in test [4] and in test [5] was greater than 50 µM in each case.

Turning to `C=C[C@]1(C)C=C2C(=O)[C@H](O)[C@H]3[C@](C)(COC(=O)C(C)C)[C@H](OC(C)=O)C[C@H]4C[C@]43[C@@]2(O)CC1`, the IC50 in test [1] is greater than 50 µM; in test [2] it was greater than 50 µM; in test [3] it was greater than 50 µM; in test [4], 26.6 µM; in test [5] it was greater than 50 µM.

Take `C=C[C@]1(C)C=C2C(=O)C(O)=C3[C@@]4(O)[C@H](C[C@H](OC(C)=O)[C@]3(C)COC(=O)C(C)C)C[C@]24CC1`: the inhibition result in test [6] is “Dose-dependent effect”. Besides, in test [7], the inhibition entry is “Active”. Further, the IC50 in test [1] worked out at 10.3 µM; in test [2] it was 10.7 µM; in test [3] it was 13.1 µM; in test [4], 12.1 µM; in test [5], 12.6 µM.

Turning to `C=C[C@]1(C)C=C2C(=O)C(O)=C3[C@@]4(OC)[C@H](C[C@H](OC(C)=O)[C@]3(C)COC(=O)C(C)C)C[C@]24CC1`, the inhibition result in test [6] is “Dose-dependent effect”. Besides, the inhibition result in test [7] was “Active”. In addition, the IC50 was found to be 8 µM in test [1]; 8.3 µM in test [2]; 6 µM in test [3]; 7 µM in test [4]; 8.4 µM in test [5].

As to `C=C[C@]1(C)C=C2C(=O)C(O)=C3[C@](C)(COC(C)=O)[C@H](OC(C)=O)C[C@H]4C[C@@]34[C@@]2(O)CC1`, the IC50 is 2.4 µM in test [1]; 4.1 µM in test [2]; 3.1 µM in test [3]; 6 µM in test [4]; 2.2 µM in test [5].

For `C=C[C@]1(C)C=C2C(=O)C(O)=C3[C@](C)(COC(=O)CC)[C@H](OC(C)=O)C[C@H]4C[C@@]34[C@@]2(O)CC1`, the half-maximal inhibitory concentration (IC50) in test [1] is 1 µM; in test [2], 2.9 µM; in test [3], 2.6 µM; in test [4] it was 3.6 µM; in test [5], 1.9 µM.

As to `C=C[C@]1(C)C=C2C(=O)C(O)=C3[C@](C)(COC(=O)C(C)C)[C@H](O)C[C@H]4C[C@@]34[C@@]2(O)CC1`, the IC50 in test [1] was 0.8 µM; in test [2], 1.1 µM; in test [3], 1.2 µM; in test [4], 2.1 µM; in test [5] it was 1.3 µM.

`C=C[C@]1(C)C=C2C(=O)C(=O)[C@H]3[C@](C)(COC(=O)C(C)C)[C@H](OC(C)=O)C[C@H]4C[C@]43[C@@]2(O)CC1`: the IC50 in test [1] was greater than 50 µM; in test [2] it was greater than 50 µM; in test [3], greater than 50 µM; in test [4] it was greater than 50 µM; in test [5] it was 29.4 µM.

For `C=C[C@]1(C)C=C2C(=O)C(O)=C3[C@](C)(COC(=O)C(C)C)[C@H](OC(C)=O)C[C@H]4C[C@@]34[C@@]2(O)CC1`, the IC50 amounted to 0.3 µM in test [1]; 1.4 µM in test [2]; 0.7 µM in test [3]; 1.8 µM in test [4]; 1 µM in test [5].
